Assay results as given in publication PMC11276905 (International Journal of Molecular Sciences, 2024).
“Also recorded” adds a separate entry of the source. Read-outs that look alike come from different tables or passages of the source.

Experiments:
[1] = biological target: T1, HNE in U937 cells (Homo sapiens, UniProt P08246); assay: Intracellular HNE inhibition in cultured U937 cells (residual activity in lysates); assay type: cell-based; details: for time course of HNE inhibition in U937 cells (in words): 0-26 h culture; for effect on HNE activity in the U937 cell culture model (in words): 0-26 h, increasing concentrations, alvelestat and sivelestat up to more than 1000-fold above Ki
T1 construct: the myeloid cell line U937, which can differentiate into neutrophils [25] and expresses HNE; host or cells: U937 (histiocytic lymphoma), undifferentiated
T1 sequence (P08246 30-247 limits assumed): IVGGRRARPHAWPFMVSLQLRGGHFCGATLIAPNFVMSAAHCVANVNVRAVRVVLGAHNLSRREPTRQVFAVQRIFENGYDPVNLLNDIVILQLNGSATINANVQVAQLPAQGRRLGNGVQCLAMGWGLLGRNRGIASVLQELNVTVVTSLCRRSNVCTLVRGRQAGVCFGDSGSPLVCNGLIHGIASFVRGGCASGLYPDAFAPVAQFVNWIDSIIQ
Procedure: (§3) The enzymatic activity of HNE was measured using a fluorescence-based assay in 96-well black bottom plates (Corning®, 003916, New York, NY, USA). HNE (0.5 nM) or cell lysates (20 µL, ~100 PMN/µL, ~1000 U937/µL, ~5000 HL-60/µL or ~1000 HMC-1/µL) were diluted in assay buffer (200 mM TRIS HCl, 500 mM NaCl, 0.05% Tween-20, pH 8.0). […] AMC (7-Amino-4-methylcoumarin) standard curves were generated by measuring serial dilutions of the fluorophore AMC (1 µM–0 µM) in assay buffer on the same plate and used to calculate nM AMC generation from fluorescence measurements.
(§4) U937 cells were plated in sterile 96-U-well plates (92697, TPP, Trasadingen, Switzerland) at a density of 100 cells/µL in a cell culture medium (180 µL per well). Increasing concentrations of inhibitors and solvent controls were diluted in a culture medium and added (20 µL/well) to the 96-well plate 26 h, 6 h, 3 h, and 0 h before harvesting and lysing the cells (see below). Plates were kept at 37 °C, 5% CO2, and 95% humidity throughout the incubation period. […] Similarly, freshly isolated PMN were plated at 50–100 cells/µL in PBS (1 g/L glucose) and incubated for 1 h with inhibitors or controls.
(§5) For cell lysis, cells were pelleted in the microtiter plates by centrifugation (400× g, 10 min, 4 °C) and washed three times in PBS (4 °C). Washed cells were then lysed by adding lysis buffer (PBS, 1 M NaCl, 0.1% Tween-20, pH 7.4) and freeze–thawing on dry ice. Finally, lysates were centrifuged (2100× g) to remove cell debris. Enzymatic activity of HNE was determined as described above, and residual activity present after incubation with inhibitors expressed as % of matched solvent controls.

[2] = biological target: T2, HNE in mature PMN (Homo sapiens, UniProt P08246); assay: Intracellular HNE inhibition in freshly isolated mature PMN; details: for potency in PMN compared with U937 cells (in words): PMN 1 h vs U937 0-3 h
T2 sequence (P08246 30-247 limits assumed): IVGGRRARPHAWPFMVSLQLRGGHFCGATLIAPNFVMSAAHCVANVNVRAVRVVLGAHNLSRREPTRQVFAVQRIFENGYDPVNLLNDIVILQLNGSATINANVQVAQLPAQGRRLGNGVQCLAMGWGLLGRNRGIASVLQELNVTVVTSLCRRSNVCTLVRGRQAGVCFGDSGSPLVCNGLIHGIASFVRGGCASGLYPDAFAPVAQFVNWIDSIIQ
Procedure: Peripheral venous blood was collected from six healthy donors after informed consent (votum 018-09 of the local ethics committee), and differential blood counts were performed. Neutrophil granulocytes were isolated using the MACSxpress neutrophil isolation kit (Miltenyi Biotec, Bergisch Gladbach, Germany) following the manufacturer’s instructions. Residual erythrocytes were eliminated by hypotonic lysis. Neutrophils were resuspended in PBS with glucose (1 g/L) at a density of 50–100 cells/µL. The purity of the final cell population was analyzed by staining a smear using Pappenheim’s method and counting ≥200 cells using a light microscope.
as §3, §4, §5

[3] = biological target: T3, isolated HNE (human neutrophil elastase) (Homo sapiens, UniProt P08246); assay: Inhibition of isolated HNE, steady-state kinetics (MeOSuc-AAPV-AMC); assay type: biochemical; details: for Ki: incubated 1 h 37 °C, Morrison fit, mean ± SD, compound 5b in phosphate buffer pH 7.4
T3 construct: immediately processed to its active form in the trans-Golgi before being targeted to azurophil granules; purchased Merck (Darmstadt, Germany) 324681
T3 sequence (P08246 30-267): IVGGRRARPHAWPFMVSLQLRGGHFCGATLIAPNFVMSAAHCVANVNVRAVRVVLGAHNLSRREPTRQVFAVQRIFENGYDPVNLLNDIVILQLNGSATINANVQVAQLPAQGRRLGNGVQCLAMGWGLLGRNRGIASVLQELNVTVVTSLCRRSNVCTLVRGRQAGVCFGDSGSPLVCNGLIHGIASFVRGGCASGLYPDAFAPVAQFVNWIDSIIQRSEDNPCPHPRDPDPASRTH
Procedure: (§1) To determine the inhibition constants of reversible inhibitors with isolated HNE and HNE in cell lysates, HNE (0.5 nM) and U937 lysates (1000 cells/µL) were incubated with serial dilutions of the compounds in assay buffer at 37 °C for ≥ 1 h. Subsequently, residual HNE activity was measured as described above and compared to the activity of uninhibited HNE. […] The inhibition curves generated were fitted to Morrisons’s equation to obtain the dissociation equilibrium constant Ki with pro-Fit (Quantum Soft, Uetikon am See, Switzerland) using a Levenberg–Marquardt algorithm.

[4] = biological target: T4, HNE in U937 lysates (Homo sapiens, UniProt P08246); assay: Inhibition of HNE activity in U937 lysates; assay type: biochemical; details: for Ki: U937 lysate 1000 cells/µL, incubated 1 h 37 °C, Morrison fit
T4 construct: the myeloid cell line U937, which can differentiate into neutrophils [25] and expresses HNE; host or cells: U937 (histiocytic lymphoma), undifferentiated
T4 sequence (P08246 30-247 limits assumed): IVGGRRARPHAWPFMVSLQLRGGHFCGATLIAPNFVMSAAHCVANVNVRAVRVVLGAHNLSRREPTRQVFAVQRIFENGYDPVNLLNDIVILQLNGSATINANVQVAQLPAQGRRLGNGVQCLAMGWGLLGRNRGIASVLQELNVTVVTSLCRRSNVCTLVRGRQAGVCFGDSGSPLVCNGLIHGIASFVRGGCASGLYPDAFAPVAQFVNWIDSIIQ
Procedure: (§2) For the quantification and characterization of HNE-like activity in cell lysates, the density of the sample cell suspension was first quantified using a CASY-1 cell counter.
as §1

[5] = biological target: T5, isolated HNE (Homo sapiens, UniProt P08246); assay: Formation and dissociation of the HNE/inhibitor complex (pre-steady-state kinetics); assay type: biochemical; details: for kon: pre-steady-state kinetics, HNE 0.6 nM, 37 °C, mean ± SD; for koff: koff = Ki × kon, irreversible inhibitors ≈ zero
T5 construct: immediately processed to its active form in the trans-Golgi before being targeted to azurophil granules; purchased Merck (Darmstadt, Germany) 324681
T5 sequence (P08246 30-267): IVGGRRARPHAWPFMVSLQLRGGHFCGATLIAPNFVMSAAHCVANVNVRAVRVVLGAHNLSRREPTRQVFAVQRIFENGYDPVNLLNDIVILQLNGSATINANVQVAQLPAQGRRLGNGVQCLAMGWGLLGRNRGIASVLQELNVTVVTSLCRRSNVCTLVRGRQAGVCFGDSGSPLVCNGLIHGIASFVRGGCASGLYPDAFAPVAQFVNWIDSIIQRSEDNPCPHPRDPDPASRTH
Procedure: To determine the association rates (kon) of the inhibitors, the enzymatic activity of HNE (0.6 nM) was recorded continuously in an SFM25 fluorometer (Biotek Kontron, Neufahrn, Germany) by following the cleavage of MeOSuc-AAPV-AMC (10 µM) at 37 °C. When a constant rate was established (i.e., after 1–5 min), an inhibitor was added, and the reaction followed for up to 60 min. The pseudo-first-order rate constant kobs was obtained by fitting the observed presteady-state progress curve to the integrated equation of Morrison with pro-Fit. Apparent second-order rate constants were subsequently calculated as k2/Ki = kobs/It by linear regression from several independent experiments using a range of concentrations. For reversible inhibitors, the dissociation rate koff was subsequentially calculated as koff = Ki × kon; for irreversible inhibitors, koff is ≈ zero. Finally, the halftime of the HNE/inhibitor complex formation and dissociation were calculated as t1/2,on = 0.693/(kass × It + koff) and t1/2,off = 0.693/koff, respectively.

[6] = biological target: T5, isolated HNE; design: method as in PMID 21791628; details: cited from earlier work
[7] = biological target: T6, elastase-like activity (HNE) in PMN lysates (Homo sapiens, UniProt P08246); assay: Inhibition of elastase-like activity in PMN lysates; assay type: biochemical; details: 1 mM, 1 h, 37 °C
T6 construct: from tissue; host or cells: neutrophil granulocytes from peripheral venous blood of healthy human donors
T6 sequence (P08246 30-247 limits assumed): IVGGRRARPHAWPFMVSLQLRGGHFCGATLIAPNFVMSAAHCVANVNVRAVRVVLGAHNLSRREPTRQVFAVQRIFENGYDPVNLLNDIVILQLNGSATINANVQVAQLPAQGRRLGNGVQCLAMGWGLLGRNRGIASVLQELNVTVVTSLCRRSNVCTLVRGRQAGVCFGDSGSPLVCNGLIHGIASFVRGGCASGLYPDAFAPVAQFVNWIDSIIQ
From the text: Residual erythrocytes were eliminated by hypotonic lysis.
as §2

[8] = test system: elastase-like activity in HL-60 lysates; assay: Inhibition of elastase-like activity in HL-60 lysates; assay type: biochemical, human; details: 1 mM, 1 h, 37 °C
From the text: as §2

[9] = Inhibitor stability in serum-free cell culture medium; assay type: physicochemical; details: 26 h, serum-free medium (RPMI), 37 °C
Procedure: Inhibitors were prepared as above and incubated for 26 h in RPMI at 37 °C. Residual inhibitor activity was compared to the activity of freshly prepared compounds by measuring the inhibition of HNE.

[10] = test system: U937 cells; assay: LDH release from U937 cells; assay type: cell-based, human; details: 1000 and 300 µM, after 26 h
Procedure: Cytotoxicity of the inhibitors was determined by analyzing the release of lactate dehydrogenase (LDH) into the cell culture medium using the LDH cytotoxicity kit II (PromoKine, Heidelberg, Germany) or the more sensitive Pierce LDH cytotoxicity assay kit (Thermo Scientific, Darmstadt, Germany) following the manufacturer’s instructions.

[11] = test system: U937 cells; assay: Proliferation of U937 cells; assay type: cell-based, human; details: concentrations ≥300 µM
Procedure: U937 cells were plated in sterile 96-U-well plates (92697, TPP, Trasadingen, Switzerland) at a density of 100 cells/µL in a cell culture medium (180 µL per well). Increasing concentrations of inhibitors and solvent controls were diluted in a culture medium and added (20 µL/well) to the 96-well plate 26 h, 6 h, 3 h, and 0 h before harvesting and lysing the cells (see below). Plates were kept at 37 °C, 5% CO2, and 95% humidity throughout the incubation period.

[12] = biological target: T3, isolated HNE (human neutrophil elastase); assay: Inhibition of isolated HNE, steady-state kinetics (MeOSuc-AAPV-AMC); assay type: biochemical; details: read-out: IC50(60min), isolated HNE; irreversible inhibitors, incubated 1 h, logistic fit, mean ± SD
[13] = test system: surface of neutrophils; design: method as in earlier work; details: ref 41 (Braun and Schnebli); read-out: surface binding affinity Kd; cited from earlier work
[14] = biological target: T7, eglin C (Hirudo medicinalis, UniProt P01051); assay: steady-state inhibition, Morrison fit, U937 lysate
T7 chain: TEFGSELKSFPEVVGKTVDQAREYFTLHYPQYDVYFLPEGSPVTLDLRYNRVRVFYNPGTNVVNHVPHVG

[15] = biological target: T7, eglin C; assay: steady-state inhibition, Morrison fit, isolated HNE
[16] = read-out: IC50, HNE in PMN, 1 h incubation

CC(C)[C@@H]1C(=O)N(S(C)(=O)=O)[C@@H]2CCN(C(=O)/C=C/CN3CCCCC3)[C@H]21 [GW311616]
time course of HNE inhibition in U937 cells (in words) [1]: inhibit HNE in U937 cells increasingly over the 26 h observation period | potency in PMN compared with U937 cells (in words) [2]: somewhat less potent

Cc1c(-c2ccnn2C)cc(C(=O)NCc2ccc(S(C)(=O)=O)cn2)c(=O)n1-c1cccc(C(F)(F)F)c1 [Alvelestat, alvelestat]
Ki ([3]; HNE 0.5 nM): 9 nM | Ki ([4]; mean ± SD): 11 nM | effect on HNE activity in the U937 cell culture model (in words) [1]: no detectable effect; also recorded: no measurable effect; also recorded: do not cause detectable intracellular inhibition | half-life of the complex with HNE (in words) [5]: seconds to a few minutes | koff [6]: 0.057 s⁻¹ | kon ([6]; too fast to be recorded with authors' setup): 7e+06 M⁻¹ s⁻¹ | effect on HNE in mature PMN (in words) ([2]; 1 h incubation): negligible effect

Cl.NCCc1ccc(S(=O)(=O)F)cc1 [Pefabloc SC]
inhibition of activity of isolated HNE ([3]; 1 mM, 1 h, 37 °C, HNE 0.5 nM): 98 ± 0.6% | inhibition of isolated HNE ([3]; at ~10^−3 M): nearly complete inhibition | inhibition of elastase-like activity in U937 lysate ([4]; 1 mM, 1 h, 37 °C): 91 ± 0.6% | IC50 ([4]; read-out: IC50(60min), U937 lysate, irreversible inhibitors, incubated 1 h, logistic fit, mean ± SD): 130000 nM | inhibition of elastase-like activity in PMN lysate [7]: 97 ± 0.6% | inhibition of elastase-like activity in HL-60 lysate [8]: 95 ± 1% | time course of HNE inhibition in U937 cells (in words) [1]: increases during the first 6 h; also recorded: lose effectiveness over time | IC50 ([1]; 0 h incubation, read-out: IC50, HNE in U937 cells at 0 h): ~100000 nM | inhibition of HNE in intact U937 cells ([1]; at ~10^−3 M): nearly complete inhibition | IC50 ([1]; intact U937 cells, time not specified, read-out: IC50, HNE in intact U937 cells): ~100000 nM | IC50 ([1]; read-out: IC50, HNE in U937 cells at 6 h, 6 h incubation): ~10000 nM | kon [5]: 1.0 ± 0.1 M⁻¹ s⁻¹ | decrease of inhibitory activity after incubation in medium [9]: approximately 50% | LDH release from U937 cells [10]: 12 ± 2% | reduction of U937 cell proliferation [11]: 50 ± 3% | IC50 [12]: 130000 nM | IC50 [2, 16]: ~100000 nM

CCC[C@@H](NC(=O)N1C(=O)C(CC)(CC)[C@@H]1Oc1ccc(C(=O)N2CCN(C)CC2)cc1)c1ccc2c(c1)OCO2 [DMP 777]
Ki ([3]; HNE 0.5 nM): 0.25 nM | Ki ([4]; mean ± SD): 0.34 nM | time course of HNE inhibition in U937 cells (in words) [1]: inhibit HNE in U937 cells increasingly over the 26 h observation period | koff [5]: 0.00012 s⁻¹ | kon [5]: 4.9 ± 0.4 × 10^5 M^−1 s^−1 | potency in PMN compared with U937 cells (in words) [2]: somewhat less potent

B1: Eglin C: small leech-derived protein (70 amino acids, 8091 Da), proteinase inhibitor (protein, UniProt P01051 1-70, looked up)
Eglin C: TEFGSELKSFPEVVGKTVDQAREYFTLHYPQYDVYFLPEGSPVTLDLRYNRVRVFYNPGTNVVNHVPHVG
fold less effective on HNE in cell lysates than on isolated HNE ([4]; U937 lysate vs isolated HNE): 10 fold | fold less potent in PMN lysates ([4]; printed 'PMN lysates'): ~ 10 fold | effect on HNE activity in the U937 cell culture model (in words) [1]: do not inhibit HNE | effect on HNE in U937 cells ([1]; 10 µM, after 26 h): little effect | koff [5]: 3.8e-05 s⁻¹ | kon [5]: 2.9 ± 0.09 × 10^6 M^−1 s^−1 | Kd [13]: 200 nM | effect on HNE in mature PMN (in words) ([2]; 1 h incubation): inhibits intracellular HNE but only in mature neutrophils | IC50 [2, 16]: ~20 nM | IC50 ([2]; read-out: IC50 for the inhibition of intracellular HNE, mature neutrophils): 20 nM

B2: neutrophil elastase (protein)
chain: IVGGRRARPHAWPFMVSLQLRGGHFCGATLIAPNFVMSAAHCVANVNVRAVRVVLGAHNLSRREPTRQVFAVQRIFENGYDPVNLLNDIVILQLNGSATINANVQVAQLPAQGRRLGNGVQCLAMGWGLLGRNRGIASVLQELNVTVVTSLCRRSNVCTLVRGRQAGVCFGDSGSPLVCNGLIHGIASFVRGGCASGLYPDAFAPVAQFVNWIDSIIQRSEDNPCPHPRDPDPASRTH
Ki [14]: 0.19 nM | Ki [15]: 0.013 nM
